# Data reported in patent US10071081B2, “Compositions of 1,2,4-oxadiazole benzoic acid compounds and methods for their use” (PTC Therapeutics, Inc., priority 2003, dated 2018).
# Test system: luciferase reporter construct containing a UGA premature termination codon
# Experiment: cell-based luciferase reporter assay
# Parameters: species or system Human; key to Activity: *****: both extremely high potency and extremely high efficacy of protein synthesis; ****: extremely high potency of protein synthesis and very high efficacy; ****: very high potency of protein synthesis and extremely high efficacy; ***: both very high potency and very high efficacy of protein synthesis; **: very high potency of protein synthesis and significant efficacy; **: significant potency of protein synthesis and very high efficacy; *: significant potency and efficacy of protein synthesis
# Details: ranking combining potency and efficacy of protein synthesis; UGA luciferase reporter stably transfected in 293T Human Embryonic Kidney cells
# Method: Activity measurements in Table I were performed in a cell-based luciferase reporter assay (as described in Section 4.2) comprising a luciferase reporter construct containing a UGA premature termination codon that was stably transfected in 293T Human Embryonic Kidney cells. A small molecule, 3-[3-(4-Isopropyl-phenyl)-2,5-dioxo-imidazolidin-1-yl]-benzoic acid, known to allow readthrough of premature termination codons was used was used as an internal standard. Activity measurements are based on the qualitative relation between the minimum concentration of compound required to produce a given protein in a cell (potency) and the maximum amount of protein produced by the cell (efficacy). Potency and efficacy activities are ranked as either extremely high, very high or significant. The combination of these activities is used to determine the activity ranking.
# Two assays were developed for use in high throughput screens to identify small molecules that promote nonsense suppression. Each assay utilized luciferase because it is a functional reporter gene assay (light is only produced if the protein is functional) and it is extremely sensitive (Light intensity is proportional to luciferase concentration in the nM range). The first assay is a cell-based luciferase reporter assay and the second is a biochemical assay consisting of rabbit reticulocyte lysate and a nonsense-containing luciferase reporter mRNA. In the cell-based assay, a luciferase reporter construct containing a UGA premature termination codon was stably transfected in 293T Human Embryonic Kidney cells. In the biochemical assay, mRNA containing a UGA premature termination codon was used as a reporter in an in vitro translation reaction using rabbit reticulocyte lysate supplemented with tRNA, hemin, creatine kinase, amino acids, KOAc, Mg(OAc)2, and creatine phosphate. […] Synthetic mRNA was prepared in vitro using the T7 promoter and the MegaScript in vitro transcription kit (Ambion).
# To determine whether compounds also function in vivo, a stable cell line harboring the UGA nonsense-containing luciferase gene was treated with selected compounds. Cells were grown in standard medium supplemented with 1% penicillin-streptomycin (P/S) and 10% fetal bovine serum (FBS) to 70% confluency and split 1:1 the day before treatment. On the following day, cells were trypsinized and 40,000 cells were added to each well of a 96-well tissue culture dish. Serial dilutions of each compound were prepared to generate a six-point dose response curve spanning 2 logs (30 μM to 0.3 μM). The final concentration of the DMSO solvent remained constant at 1% in each well. Cells treated with 1% DMSO served as the background standard, and cells treated with gentamicin served as a positive control.
row,SMILES,Activity
1,"O=C(O)c1cccc(-c2noc(-c3cc4ccccc4s3)n2)c1 [Compound 65, 3-(5-Benzo[b]thiophen-2-yl-[1,2,4]oxadiazol-3-yl)-benzoic acid]",*****
2,"O=C(O)c1cccc(-c2noc(C3CC3)n2)c1 [Compound 27, 3-(5-Cyclopropyl-[1,2,4]oxadiazol-3-yl)-benzoic acid]",****
3,"O=C(O)c1cccc(-c2noc(-c3ccc(Cl)nc3)n2)c1 [Compound 53, 3-[5-(6-Chloro-pyridin-3-yl)-[1,2,4]oxadiazol-3-yl]-benzoic acid]",****
4,"O=C(O)c1cccc(-c2noc(-c3ccc4c(c3)OC(F)(F)O4)n2)c1 [Compound 70, 3-[5-(2,2-Difluoro-benzo[1,3]dioxol-5-yl)-[1,2,4]oxadiazol-3-yl]-benzoic acid]",***
5,"O=C(O)c1cccc(-c2noc(-c3ccc(N4CCCC4)nc3)n2)c1 [Compound 82, 3-[5-(6-Pyrrolidin-1-yl-pyridin-3-yl)-[1,2,4]oxadiazol-3-yl]-benzoic acid]",****
6,"O=C(O)c1cccc(-c2noc(-c3ccc(-c4ccccc4)cc3)n2)c1 [Compound 06, 3-(5-Biphenyl-4-yl-[1,2,4]oxadiazol-3-yl)-benzoic acid]",****
7,"COCc1nc(-c2cccc(C(=O)O)c2)no1 [Compound 43, 3-(5-Methoxymethyl-[1,2,4]oxadiazol-3-yl)-benzoic acid]",*
8,"O=C(O)c1cccc(-c2noc(Cc3ccc(Cl)cc3)n2)c1 [Compound 33, 3-[5-(4-Chloro-benzyl)-[1,2,4]oxadiazol-3-yl]-benzoic acid]",****
9,"O=C(O)c1cccc(-c2noc(-c3ccc(Br)cc3F)n2)c1 [Compound 74, 3-[5-(4-Bromo-2-fluoro-phenyl)-[1,2,4]oxadiazol-3-yl]-benzoic acid]",***
10,"CC(C)(C)c1ccc(-c2nc(-c3cccc(C(=O)O)c3)no2)cc1 [Compound 25, 3-[5-(4-tert-Butyl-phenyl)-[1,2,4]oxadiazol-3-yl]-benzoic acid]",*****
11,"O=C(O)c1cccc(-c2noc(-c3ccc([N+](=O)[O-])cc3)n2)c1 [Compound 11, 3-[5-(4-Nitro-phenyl)-[1,2,4]oxadiazol-3-yl]-benzoic acid]",****
12,"O=C(O)c1cccc(-c2noc(-c3cccc(Cl)c3)n2)c1 [Compound 01, 3-[5-(3-Chloro-phenyl)-[1,2,4]oxadiazol-3-yl]-benzoic acid]",*****
13,"O=C(O)c1cccc(-c2noc(-c3cc(F)ccc3F)n2)c1 [Compound 44, 3-[5-(2,5-Difluoro-phenyl)-[1,2,4]oxadiazol-3-yl]-benzoic acid]",****
14,"COCCOCCOC(=O)c1cccc(-c2noc(-c3ccccc3F)n2)c1 [Compound 88, 3-[5-(2-Fluoro-phenyl)-[1,2,4]oxadiazol-3-yl]-benzoic acid 2-(2-methoxy-ethoxy)-ethyl ester]",**
15,"CC(C)c1nc(-c2cccc(C(=O)O)c2)no1 [Compound 15, 3-(5-Isopropyl-[1,2,4]oxadiazol-3-yl)-benzoic acid]",****
16,"COC(=O)c1cccc(-c2noc(-c3ccc(F)cc3)n2)c1 [Compound 79, 3-[5-(4-Fluoro-phenyl)-[1,2,4]oxadiazol-3-yl]-benzoic acid methyl ester]",***
17,"O=C(OCCOCCOCCOCCOCCOCCO)c1cccc(-c2noc(-c3ccccc3F)n2)c1 [Compound 92, 3-[5-(2-Fluoro-phenyl)-[1,2,4]oxadiazol-3-yl]-benzoic acid 2-[2-(2-{2-[2-(2-hydroxy-ethoxy)-ethoxy]-ethoxy}-ethoxy)-ethoxy]-ethyl ester]",***
18,"Nc1ccc(-c2nc(-c3cccc(C(=O)O)c3)no2)cc1 [Compound 93, 3-[5-(4-Amino-phenyl)-[1,2,4]oxadiazol-3-yl]-benzoic acid]",****

row,SMILES,Activity
1,"O=C(O)c1cccc(-c2noc(-c3c(O)cccc3F)n2)c1 [Compound 85, 3-[5-(2-Fluoro-6-hydroxy-phenyl)-[1,2,4]oxadiazol-3-yl]-benzoic acid]",**
2,"CN(C)c1cccc(-c2nc(-c3cccc(C(=O)O)c3)no2)c1 [Compound 66, 3-[5-(3-Dimethylamino-phenyl)-[1,2,4]oxadiazol-3-yl]-benzoic acid]",****
3,"Cc1ccc(-c2nc(-c3cccc(C(=O)O)c3)no2)cc1 [Compound 04, 3-(5-p-Tolyl-[1,2,4]oxadiazol-3-yl)-benzoic acid]",*****
4,"O=C(O)c1cccc(-c2noc(-c3ccc(OCc4ccccc4)cc3)n2)c1 [Compound 95, 3-[5-(4-Benzyloxy-phenyl)-[1,2,4]oxadiazol-3-yl]-benzoic acid]",*
5,"N#Cc1ccc(-c2nc(-c3cccc(C(=O)O)c3)no2)cc1 [Compound 77, 3-[5-(4-Cyano-phenyl)-[1,2,4]oxadiazol-3-yl]-benzoic acid]",*****
6,"O=C(O)c1cccc(-c2noc(C3CCCCC3)n2)c1 [Compound 09, 3-(5-Cyclohexyl-[1,2,4]oxadiazol-3-yl)-benzoic acid]",****
7,"CC(C)Cc1ccc(-c2nc(-c3cccc(C(=O)O)c3)no2)cc1 [Compound 07, 3-[5-(4-Isobutyl-phenyl)-[1,2,4]oxadiazol-3-yl]-benzoic acid]",**
8,"O=C(O)c1cccc(-c2noc(-c3ccc(N4CCCCC4)nc3)n2)c1 [Compound 84, 3-[5-(3,4,5,6-Tetrahydro-2H-[1,2′]bipyridinyl-5′-yl)-[1,2,4]oxadiazol-3-yl]-benzoic acid]",****
9,"O=C(O)c1cccc(-c2noc(-c3ccccc3)n2)c1 [Compound 08, 3-(5-Phenyl-[1,2,4]oxadiazol-3-yl)-benzoic acid]",*****
10,"O=C(O)c1cccc(-c2noc(-c3cccnc3)n2)c1 [Compound 58, 3-(5-Pyridin-3-yl-[1,2,4]oxadiazol-3-yl)-benzoic acid]",***
11,"Cc1cc(-c2nc(-c3cccc(C(=O)O)c3)no2)c(C)o1 [Compound 49, 3-[5-(2,5-Dimethyl-furan-3-yl)-[1,2,4]oxadiazol-3-yl]-benzoic acid]",****
12,"COc1ccccc1-c1nc(-c2cccc(C(=O)O)c2)no1 [Compound 19, 3-[5-(2-Methoxy-phenyl)-[1,2,4]oxadiazol-3-yl]-benzoic acid]",***
13,"O=C(O)c1cccc(-c2noc(C3CCCC3)n2)c1 [Compound 31, 3-(5-Cyclopentyl-[1,2,4]oxadiazol-3-yl)-benzoic acid]",****
14,"COc1ccc(Cc2nc(-c3cccc(C(=O)O)c3)no2)cc1 [Compound 61, 3-[5-(4-Methoxy-benzyl)-[1,2,4]oxadiazol-3-yl]-benzoic acid]",**
15,"O=C(O)c1cccc(-c2noc(-c3ccc(F)c(F)c3)n2)c1 [Compound 39, 3-[5-(3,4-Difluoro-phenyl)-[1,2,4]oxadiazol-3-yl]-benzoic acid]",*****
16,"CCc1ccc(-c2nc(-c3cccc(C(=O)O)c3)no2)cc1 [Compound 38, 3-[5-(4-Ethyl-phenyl)-[1,2,4]oxadiazol-3-yl]-benzoic acid]",*****
17,"COc1cc(-c2nc(-c3cccc(C(=O)O)c3)no2)cc(OC)c1OC [Compound 10, 3-[5-(3,4,5-Trimethoxy-phenyl)-[1,2,4]oxadiazol-3-yl]-benzoic acid]",***
